Test results as given in patent publication US8802664B2 (Bioproject, priority 2010, dated 2014).
Counter-ions that a name gives are not always drawn.

melting point [°C] | SMILES
159 | CN1CCC(NC(c2cccc(OCc3cc(F)ccc3F)c2)c2nc3ccccc3[nH]2)CC1 (stereo not shown) (as salt: oxalate) [Example 149, {(1H-benzimidazol-2-yl)[3-(2,5-difluoro-benzyloxy)phenyl]methyl}(1-methylpiperidin-4-yl)amine]
109 | COCCn1c(C(OC2CCN(C)CC2)c2cccc(C#CCCCCN)c2)nc2ccccc21 (stereo not shown) (as salt: oxalate) [Example 501]
120 | CN1CCC(OC(c2cccc(-c3cccc(F)c3)c2)c2nc3ccccc3[nH]2)CC1 (stereo not shown) (as salt: oxalate) [Example 109, 2-[(3′-fluoro-biphenyl-3-yl)(1-methylpiperidin-4-yloxy)methyl]-1H-benzimidazole]
120 | CN1CCC(OC(c2cccc(CCCCNC(=N)N)c2)c2nc3ccccc3s2)CC1 (stereo not shown) (as salt: hydrochloride) [Example 374, N-(4-{3-[benzothiazol-2-yl(1-methylpiperidin-4-yloxy)methyl]phenyl}butyl)guanidine]
110 | CN1CCC(OC(c2cccc(N3CCC(O)CC3)c2)c2nc3ccccc3s2)CC1 (stereo not shown) (as salt: oxalate) [Example 411, 1-{3-[benzothiazol-2-yl(1-methylpiperidin-4-yloxy)methyl]phenyl}piperidin-4-ol]
85 | CN1CCC(OC(c2cccc(OCc3ccco3)c2)c2nc3ccccc3s2)CC1 (stereo not shown) (as salt: oxalate) [Example 267, 2-[[3-(furan-2-ylmethoxy)phenyl](1-methylpiperidin-4-yloxy)methyl]benzothiazole]
160 | Cc1cc(C(NC2CCN(C)CC2)c2nc3ccccc3s2)ccc1F (stereo not shown) (as salt: oxalate) [Example 35, [benzothiazol-2-yl(4-fluoro-3-methyl-phenyl)methyl](1-methylpiperidin-4-yl)amine]
126 | CN1CCC(OC(c2cccc(N3CC4CC(N)CC4C3)c2)c2nc3ccccc3s2)CC1 (stereo not shown) (as salt: oxalate) [Example 471]
80 | CN1CCC(OC(c2cccc(SC(C)(C)CCO)c2)c2nc3ccccc3s2)CC1 (stereo not shown) (as salt: oxalate) [Example 242, 3-{3-[benzothiazol-2-yl(1-methylpiperidin-4-yloxy)methyl]phenylsulfanyl}-3-methyl-butan-1-ol]
128 | CCCCCOc1cccc(C(NC2CCN(C)CC2)c2nc3ccccc3[nH]2)c1 (stereo not shown) (as salt: oxalate) [Example 95, [(1H-benzimidazol-2-yl)(3-pentyloxyphenyl)methyl](1-methylpiperidin-4-yl)amine]
167 to 170 | CN1CCC(OC(c2cccc(F)c2)c2nc3ccccc3s2)CC1 (stereo not shown) (as salt: oxalate) [Example 5]
95 | CN1CCC(OC(c2nc3ccccc3s2)c2cc(OC(F)(F)F)ccc2F)CC1 (stereo not shown) (as salt: oxalate) [Example 526]
125 | CN1CCC(OC(c2cccc(C#CCNC(=N)N)c2)c2nc3ccccc3s2)CC1 (stereo not shown) (as salt: hydrochloride) [Example 373, N-(3-{3-[benzothiazol-2-yl(1-methylpiperidin-4-yloxy)methyl]phenyl}prop-2-ynyl)guanidine]
90 | CN1CCC(OC(c2cccc(CCCCCNC(=N)N)c2)c2nc3ccccc3s2)CC1 (stereo not shown) (as salt: hydrochloride) [Example 365, N-(5-{3-[benzothiazol-2-yl(1-methylpiperidin-4-yloxy)methyl]phenyl}pentyl)guanidine]
111 | CC(=O)NC1CCN(c2cccc(C(OC3CCN(C)CC3)c3nc4ccccc4s3)c2)C1 (stereo not shown) (as salt: oxalate) [Example 408, N-(1-{3-[benzothiazol-2-yl(1-methylpiperidin-4-yloxy)methyl]phenyl}pyrrolidin-3-yl)acetamide]
70 | CN1CCC(OC(c2cccc(OC3CC4CNCC4C3)c2)c2nc3ccccc3s2)CC1 (stereo not shown) (as salt: oxalate) [Example 466]
110 | CN1CCC(OC(c2cccc(SCCCCN)c2)c2nc3cc(F)c(F)c(F)c3[nH]2)CC1 (stereo not shown) (as salt: oxalate) [Example 493]
80 | CN1CCC(OC(c2cccc(SCCCCCCO)c2)c2nc3ccccc3s2)CC1 (stereo not shown) (as salt: oxalate) [Example 292, 6-{3-[benzothiazol-2-yl(1-methylpiperidin-4-yloxy)methyl]phenylsulfanyl}hexan-1-ol]
150 | CN1CCC(OC(c2cccc(C#CCCCN)c2)c2nc3cc(F)ccc3[nH]2)CC1 (stereo not shown) (as salt: oxalate) [Example 438, 5-{3-[(5-fluoro-1H-benzimidazol-2-yl)(1-methylpiperidin-4-yloxy)methyl]phenyl}pent-4-ynylamine]

melting point [°C] | SMILES
160 | COc1cccc(C(NC2CCN(C)CC2)c2nc3ccccc3s2)c1 (stereo not shown) (as salt: oxalate) [Example 25, [benzothiazol-2-yl(3-methoxyphenyl)methyl](1-methylpiperidin-4-yl)amine]
61 | CN1CCC(OC(c2cccc(C(F)(F)F)c2)c2nc3ccccc3s2)CC1 (stereo not shown) (as salt: hydrochloride) [Example 31, 2-[(1-methylpiperidin-4-yloxy)(3-trifluoromethylphenyl)methyl]benzothiazole]
170 | Cc1cc(F)cc(C(OC2CCN(C)CC2)c2nc3ccccc3s2)c1 (stereo not shown) (as salt: oxalate) [Example 38, 2-[(3-fluoro-5-methylphenyl)(1-methylpiperidin-4-yloxy)methyl]benzothiazole]
63 | CN1CCC(OC(c2cccc(OCCCCO)c2)c2nc3ccccc3s2)CC1 (stereo not shown) (as salt: oxalate) [Example 266, 4-{3-[benzothiazol-2-yl(1-methylpiperidin-4-yloxy)methyl]phenoxy}butan-1-ol]
102 | CN1CCC(OC(c2cccc(OCc3cccnc3)c2)c2nc3ccccc3s2)CC1 (stereo not shown) (as salt: oxalate) [Example 284, 2-{(1-methylpiperidin-4-yloxy)[3-(pyridin-3-ylmethoxy)phenyl]methyl}benzothiazole]
165 to 170 | CN1CCC(OC(c2cccc(I)c2)c2nc3ccccc3s2)CC1 (stereo not shown) (as salt: oxalate) [Example 41, 2-[(3-iodophenyl)(1-methylpiperidin-4-yloxy)methyl]benzothiazole]
135 | CN1CCC(OC(c2nc3cccc(F)c3[nH]2)c2cc(OC(F)(F)F)ccc2F)CC1 (stereo not shown) (as salt: oxalate) [Example 529]
89 | CSCCOc1cccc(C(OC2CCN(C)CC2)c2nc3ccccc3s2)c1 (stereo not shown) (as salt: oxalate) [Example 250, 2-{(1-methylpiperidin-4-yloxy)[3-(2-methylsulfanyl-ethoxy)phenyl]methyl}benzothiazole]
111 | CN1CCC(OC(c2cccc(OCCCCCN)c2)c2nc3ccccc3[nH]2)CC1 (stereo not shown) (as salt: oxalate) [Example 400, 5-{3-[(1H-benzimidazol-2-yl)(1-methylpiperidin-4-yloxy)methyl]phenoxy}pentylamine]
98 | CN1CCC(NC(c2cccc(OCC3CCCCC3)c2)c2nc3ccccc3s2)CC1 (stereo not shown) (as salt: oxalate) [Example 93, [benzothiazol-2-yl(3-cyclohexylmethoxyphenyl)methyl](1-methylpiperidin-4-yl)amine]
116 | CN1CCC(NC(c2cccc(OCc3cccc(F)c3)c2)c2nc3ccccc3[nH]2)CC1 (stereo not shown) (as salt: oxalate) [Example 105, {(1H-benzimidazol-2-yl)[3-(3-fluorobenzyloxy)phenyl]methyl}(1-methylpiperidin-4-yl)amine]
132 | Cc1ccc(F)c(C(OC2CCN(C)CC2)c2nc3ccccc3[nH]2)c1 (stereo not shown) (as salt: oxalate) [Example 490]
90 | CN1CCC(OC(c2cccc(OCCN3CCN(C(=O)OC(C)(C)C)CC3)c2)c2nc3ccccc3s2)CC1 (stereo not shown) (as salt: oxalate) [Example 329, 4-(2-{3-[benzothiazol-2-yl(1-methylpiperidin-4-yloxy)methyl]phenoxy}ethyl)piperazine-1-carboxylic acid tert-butyl ester]
117 | CN1CCC(OC(c2cccc(OCC=CCN)c2)c2nc3ccccc3s2)CC1 (stereo not shown) (as salt: oxalate) [Example 431, 4-{3-[benzothiazol-2-yl(1-methylpiperidin-4-yloxy)methyl]phenoxy}but-2-enylamine]
145 | COc1cc(F)cc(C(OC2CCN(C)CC2)c2nc3ccccc3s2)c1 (stereo not shown) (as salt: oxalate) [Example 40, 2-[(3-fluoro-5-methoxyphenyl)(1-methylpiperidin-4-yloxy)methyl]benzothiazole]
162 | CN1CCC(OC(c2cccc(OCCCCCNCCCCN)c2)c2nc3ccccc3[nH]2)CC1 (stereo not shown) (as salt: oxalate) [Example 419, N1-(5-{3-[(1H-benzimidazol-2-yl)(1-methylpiperidin-4-yloxy)methyl]phenoxy}pentyl)butane-1,4-diamine]
115 | CN1CCC(OC(c2cccc(CCCCCCN)c2)c2nc3ccccc3s2)CC1 (stereo not shown) (as salt: oxalate) [Example 325, 6-{3-[benzothiazol-2-yl(1-methylpiperidin-4-yloxy)methyl]phenyl}hexylamine]
195 | CN1CCC(OC(c2nc3ccccc3[nH]2)c2cc(C#CCCCCN)ccc2F)CC1 (stereo not shown) (as salt: oxalate) [Example 557, 6-{3-[(1H-benzimidazol-2-yl)(1-methylpiperidin-4-yloxy)methyl]-4-fluorophenyl}hex-5-ynylamine]
110 | Cc1ccc(C(NC2CCN(C)CC2)c2nc3ccccc3s2)cc1 (stereo not shown) (as salt: oxalate) [Example 36, (benzothiazol-2-yl-p-tolylmethyl)(1-methylpiperidin-4-yl)amine]

SMILES | melting point [°C]
CCCCOc1cccc(C(OC2CCN(C)CC2)c2nc3ccccc3s2)c1 (stereo not shown) (as salt: oxalate) [Example 92, 2-[(3-butoxyphenyl)(1-methylpiperidin-4-yloxy)methyl]benzothiazole] | 135
CN1CCC(OC(c2cccc(OCCCC(F)(F)F)c2)c2nc3ccccc3s2)CC1 (stereo not shown) (as salt: oxalate) [Example 169, 2-{(1-methylpiperidin-4-yloxy)[3-(4,4,4-trifluoro-butoxy)phenyl]methyl}benzothiazole] | 115
